US20050202508A1, “Biomarker for Parkinson's disease” (priority 2003, published 2005)

Columns and labels:
[1] = system: PD patients; settings: cited from earlier work
[2] = system: PIF mRNA; assay: PIF mRNA expression after MPP+ treatment, northern blot; type: cell-based; settings: MPP+ treatment 12 hr, enriched rat DAergic neuron cultures, FIG. 12A
From the text: (§1) The exact molecular mechanisms leading to the pathophysiology of PD are not well understood. MPP^+, a mitochondrial complex I inhibitor, produces PD-type symptoms in humans and laboratory animals and has been used to investigate PD pathogenesis^12,13. MPP^+, the ultimate metabolite of MPTP, is taken up into DAergic neurons where it accumulates in mitochondria and works to inhibit complex I activity. Although the mechanism of MPP^+-induced neurotoxicity is not fully understood, there is increasing evidence supporting the involvement of reactive oxygen species (ROS)^14. […]
(§2) For these studies enriched mesecephalic DAergic cultures were obtained from E16 Sprague Dawley embryos and cultured for 10 days in poly 1-ornithine coated culture dish at a density of 0.5×10^6 cells per well and maintained in Neurobasal medium with B-27 supplement and 0.5 mM glutamine, as previously described^16. In A, following MPP^+ treatment for 12 hr, total RNA was extracted from the neuronal cultures using Ultraspec RNA (Biotecx) and PIF mRNA expression assessed by northern blot hybridization assay using ^32p labeled hPIF cDNA^17 and quantified by phospho-imaging (Molecular Dynamics). […] Non-specific transport was determined in parallel assays conducted in the presence of 1 uM GBR12909 and incorporated [^3H]-dopamine was extracted with NaOH (0.5M) and quantified by liquid scintillation spectrometry

[3] = system: substantia nigra DAergic neurons; type: in vivo, mouse
Method: In this study SN DAergic lesions in male C57B6/SJ mice were obtained by i.p. MPTP injection (four consecutive injections at 2 hr intervals; 20 mg/kg/body weight (BW) per injection 27); saline injected mice were used as a control (n=4 per group). Four days following MPTP (or saline) injection, mice were anesthetized using a combination of ketamine (50 mg/kg BW) and xylazine (5 mg/kg BW), CSF was then collected from cisterna magna, as previously described^28. Immediately after CSF collection (4 days post-lesioning), mice were sacrificed by cervical dislocation and the brain was collected, preserved under cryoprotection and stored at −80° C. 1 μl of CSF from each animal was analyzed by SELDI technology as described in FIG. 1. […] In panel 3B, number of thyroxine hydroxylase (TH)-immunoreactive DAergic neurons in the SN counted stereologically, with data are expressed as mean+SEM for MPTP and saline groups. In panels A and B, n=4 per group; *P<0.05.

[4] = system: substantia nigra; assay: In vivo MRM T2-weighted imaging of substantia nigra after MPTP lesion; design: species or system mouse
From the text: The goal of this study was to develop a non-invasive methodology for functionally assessing the predicative role of novel protein biomarkers in CSF (and serum) for experimental MPTP SN neurodegeneration in pre-clinical models of PD (Aim 4) using MRM imaging technology in collaboration with Dr. Cheuk Tang (Collaborator, Imaging Sciences Laboratory, Dept. Neuroradiology) and Dr. Patrick Hof (Collaborator, Advance Imaging Program, Center for Neurobiology), of Mount Sinai Medical School. The studies are based on the principle that increased iron content found in SN of PD and MPTP models of PD^29-31 may be an index of SN neurodegeneration, which can be monitored by MRM^32,33, longitudinally. Given that MRM measurement is highly sensitive to iron content in SN dopaminergic cells, we hypothesized that MRM may offer a means for non-invasive evaluation of SN neurodegeneration. In exciting ongoing studies, using a 9.4 Tesla micro MRM imager (Bruker Instrument) we collected matched consecutive rostro-caudal T2-weighted in vivo MRM images of the whole brain from the same mouse, prior to and four-days after SN MPTP lesion. […] As predicted, this observation of hypo-intense MRM measurements in the SN post-lesioning is consistent with an elevation in iron content in the degenerating nigrostriatal DAergic neurons. […]

[5] = system: SY5Y neuroblastoma catecholaminergic cells; assay: MPP+ toxicity in SY5Y cells, MTT assay; type: cell-based; settings: 24 hr after exposure to MPP+; dose dependent; FIG. 9
Method: The PD biomarker DCD-1 promotes neurotoxicity in SY5Y cells in a dose dependent manner. In this study cell toxicity in SY5Y cells was assessed 24 hr after exposure to MPP+ using methylthiazoletetrazolium [3 (4,5-dimethylthiazol-2-yl)-2,5-diphenyltetrazolium bromide] (MTT) calorimetric assay, (an index or altered energy metabolism). Values represent Means+SEM of determinations from 2 separate cultures, n=3 cultures chambers per group * P<0.05 between MPP+ and MPP+ and DCD-1 treatment (see FIG. 9).

[6] = biological target: PIF cell surface receptor (DCD receptor) (human); assay: Scatchard analysis of AP-PIF binding to human SH-SY5Y neuronal cells
[7] = system: rat mesencephalic DAergic neuron cultures; assay: MPP+-mediated neurotoxicity in enriched rat mesencephalic DAergic neuron cultures, [3H]-dopamine uptake assay; type: cell-based
From the text: as §1, §2

[8] = system: α-synuclein; assay: alpha-synuclein immunoblot in enriched DAergic neuron cultures after hrPIF treatment; type: cell-based, rat
From the text: Because of the recent evidence showing increased α-synuclein expression increases vulnerability to MPP/MPTP^19, we decided to explore the possibility that PIF might have promoted DAergic neurodgeneration through mechanisms that involve α-synuclein expression. […] This evidence is also consistent with work in Drosophila where overexpression of α-synuclein leads to DAergic toxicity^22. In these studies (see FIG. 13) 10 days old enriched […] cultures were obtained as discussed in FIG. 12. In A, following treatment with increasing concentrations of hrPIF, cultures lysed in each well using SDS-PAGE (5 mM Tris-HCl, 2% SDS, 0.1 M DTT, 0.001% Bromphenol blue, 10% glycerol, pH6.8) sample buffer. […] After 5 min incubation at RT in buffer, the Triton X-100 soluble fraction was gently collected from the-dish-. -The remaining Triton-insoluble material was gently rinsed once with ice cold PBS, and collected in buffer N (0.1 M Na2CO3, pH 11.5 with protease inhibitor cocktails). In C, the Triton-insoluble synuclein fraction was collected in the pellet by centrifugation at 16,000 g for 10 min and dissolved in 1×SDS buffer. Immunoblots used monoclonal anti α-synuclein antibody (1:1000, BD Bioscience) and immunoreactivities were visualized densitometrically.

## N[C@@H](Cc1ccc(O)c(O)c1)C(=O)O [L-dopa]
[1]
  extension of lifespan of PD patients, on average: one

## C[n+]1ccc(-c2ccccc2)cc1 [MPP^+, 1-Methyl-4-phenylpyridinium ion]
[2]
  PIF mRNA expression: dose dependently induced

## CN1CC=C(c2ccccc2)CC1 [MPTP]
[3]; MPTP i.p. 4 x 20 mg/kg, 4 days post-lesioning, stereological count
  loss of tyrosine hydroxylase (TH) immunopositive neurons: approximately 25%
[3]; mouse, in vivo
  4.6 kDa anionic DCD-like protein in CSF: induced
[4]; after MPTP lesion, n=2, 9.4 Tesla MRM
  decrease in SN T2 density / T2-weighted values vs pre-lesion: approximately 25%
[4]; post-MPTP lesioning, N=2 animals
  average normalized SN T2 density (SN T2 density/temporal T2 density): 0.6904 ± 0.05

## DCD-1: human recombinant DCD-1, aa 63-109 of dermcidin precursor, 4.7 kDa (SEQ ID NO:1) (SSLLEKGLDGAKKAVGGLGKLGKDAVEDLESVGKGAVHDVKDVLDSV; homo sapiens)
[5]
  effect on MPP+ mediated death (MTT): potentiates MPP+ mediated death

## N-terminal alkaline phosphatase (AP) C-terminal PIF (DCD) precursor protein fusion protein (from UniProt P81605 20-110) (ligand)
[6]
  Kd: 51 nM
  maximum binding concentration (receptors per cell) (PIF receptors per cell): 30000

B1: hrPIF: human recombinant full length dermicidin, His-tagged, expressed in M15 bacterial cells (protein)
chain: YDPEAASAPGSGNPCHEASAAQKENAGEDPGLARQAPKPRKQRSSLLEKGLDGAKKAVGGLGKLGKDAVEDLESVGKGAVHDVKDVLDSVL
modifications: left off: small tags and cut ends
notes: human recombinant full length dermicidin, His-tagged, expressed in M15 bacterial cells
[7]; exogenous hrPIF with MPP+, 12 hours, FIG. 12B
  potentiation of MPP+-mediated neurotoxicity, dopamine uptake assay: ~1.5 fold
[7]; exogenous hrPIF, rat mesencephalic DAergic neuron cultures, summary statement
  potentiation of MPP+-induced neurotoxicity: ~2 fold
[8]; Triton X-100 soluble fraction, FIG. 13B
  soluble oligomeric α-synuclein protofibrils: accumulation
[8]; Triton-insoluble fraction, FIG. 13C
  aggregated α-synuclein: not aggregated α-synuclein
[8]; hrPIF treatment, FIG. 13A
  expression of total α-synuclein: increased expression
